In patent publication US7704995B2 (Exelixis, Inc., priority 2003, dated 2010):
Like-named read-outs stand apart in the source and are kept apart here.

Target: T1, Chk1 (Homo sapiens, UniProt O14757)
T1 construct: purchased Upstate Biotechnology
T1 sequence (O14757 1-476): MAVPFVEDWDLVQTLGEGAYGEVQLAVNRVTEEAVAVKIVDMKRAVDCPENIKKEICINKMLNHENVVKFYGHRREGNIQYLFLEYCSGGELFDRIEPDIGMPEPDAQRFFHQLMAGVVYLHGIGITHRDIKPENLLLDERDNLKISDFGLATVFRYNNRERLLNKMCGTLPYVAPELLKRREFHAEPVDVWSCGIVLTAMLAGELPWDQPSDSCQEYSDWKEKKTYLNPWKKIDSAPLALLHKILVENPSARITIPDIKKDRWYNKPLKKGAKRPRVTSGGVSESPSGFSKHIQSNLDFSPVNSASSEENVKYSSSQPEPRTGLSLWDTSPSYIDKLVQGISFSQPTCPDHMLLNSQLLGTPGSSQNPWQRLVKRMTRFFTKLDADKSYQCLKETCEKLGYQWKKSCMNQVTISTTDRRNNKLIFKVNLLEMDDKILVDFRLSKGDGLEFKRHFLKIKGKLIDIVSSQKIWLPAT
Assay: Chk1 kinase assay: incorporation of γ-33P ATP into immobilized myelin basic protein
Assay type: biochemical
Conditions: read-out: Chk1 IC50
Outline: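 Chk1 (10 nM) or Chk2 (20 nM) phosphorylated plate-immobilized myelin basic protein for 1 h at room temperature in Hepes pH 7.6 buffer with MgCl2, DTT, 1% DMSO, γ-33P ATP plus 10 μM (Chk1) or 30 μM (Chk2) unlabeled ATP. Bound radioactivity counted by scintillation; IC50 determined, Ki derivable from IC50.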

[1] = Table 11, Chk1 only, class symbols A-D

| SMILES | IC50 [nM] | also measured |
| --- | --- | --- |
| CNC(=O)c1nc(-c2cccc(C(=O)NCc3ccc(F)c(C)c3)c2)cnc1N [Example 299, 3-amino-6-[3-({[(4-fluoro-3-methylphenyl)methyl]amino}carbonyl)phenyl]-N-methylpyrazine-2-carboxamide] | 50 to 1000 | – |
| CNC(=O)c1nc(-c2cccc(CN[C@@H]3CCc4ccccc4C3)c2)cnc1N [Example 445, 3-amino-N-methyl-6-(3-{[(2R)-1,2,3,4-tetrahydronaphthalen-2-ylamino]methyl}phenyl)pyrazine-2-carboxamide] | – | IC50 (Table 11, Chk1 only): < 50 nM |
| CNC(=O)c1nc(-c2cccc(C(=O)NCc3ccc(F)c(C(F)(F)F)c3)c2)cnc1N [Example 228, 3-amino-6-{3-[({[4-fluoro-3-(trifluoromethyl)phenyl]methyl}amino)carbonyl]phenyl}-N-methylpyrazine-2-carboxamide] | 50 to 1000 | – |
| CNC(=O)c1nc(-c2cccc(C(=O)NC3CCCCC3)c2)cnc1N [Example 133, 3-amino-6-{3-[(cyclohexylamino)carbonyl]phenyl}-N-methylpyrazine-2-carboxamide] | 1000 to 10000 | – |
| CCN1CC[C@H](NC(=O)c2nc(-c3cccc(C(=O)NCc4ccccc4)c3)cnc2N)C1 [Example 700, 3-amino-N-[(3S)-1-ethylpyrrolidin-3-yl]-6-(3-{[(phenylmethyl)amino]carbonyl}phenyl)pyrazine-2-carboxamide] | – | IC50 (Table 11, Chk1 only): 50 to 1000 nM |
| Nc1ncc(-c2cccc(S(=O)(=O)N[C@H]3CCc4ccccc43)c2)nc1C(=O)NC1CCCNC1 (stereo partly drawn) [Example 803, 3-amino-6-(3-{[(1S)-2,3-dihydro-1H-inden-1-ylamino]sulfonyl}phenyl)-N-piperidin-3-ylpyrazine-2-carboxamide] | – | IC50 (Table 11, Chk1 only): 50 to 1000 nM |
| Nc1ncc(-c2cccc(C(=O)NCc3c(F)cccc3F)c2)nc1C(=O)N[C@H]1CCCCNC1 [Example 1022, 3-amino-N-[(3S)-azepan-3-yl]-6-[3-({[(2,6-difluorophenyl)methyl]amino}carbonyl)phenyl]pyrazine-2-carboxamide] | – | IC50 [1]: < 50 nM |
| CNC(=O)c1nc(-c2cccc(CNCc3ccc4c(c3)NCCO4)c2)cnc1N [Example 386, 3-amino-6-(3-{[(3,4-dihydro-2H-1,4-benzoxazin-6-ylmethyl)amino]methyl}phenyl)-N-methylpyrazine-2-carboxamide] | 50 to 1000 | – |
| CNC(=O)c1nc(-c2cccc(CNC3CCc4c(-c5cccs5)cccc43)c2)cnc1N (centres unmarked) [Example 494, 3-amino-N-methyl-6-[3-({[4-(2-thienyl)-2,3-dihydro-1H-inden-1-yl]amino}methyl)phenyl]pyrazine-2-carboxamide] | – | IC50 (Table 11, Chk1 only): < 50 nM |
| Nc1ncc(-c2cccc(C(=O)NCc3ccccc3)c2)nc1C(=O)NCCNS(=O)(=O)c1ccccn1 [Example 665, 3-amino-6-(3-{[(phenylmethyl)amino]carbonyl}phenyl)-N-{2-[(pyridin-2-ylsulfonyl)amino]ethyl}pyrazine-2-carboxamide] | – | IC50 (Table 11, Chk1 only): ≥ 10000 nM |
| CCOC(=O)Nc1cccc(-c2cnc(N)c(C(=O)NC)n2)c1 [Example 319, ethyl (3-{5-amino-6-[(methylamino)carbonyl]pyrazin-2-yl}phenyl)carbamate] | 50 to 1000 | – |
| CNC(=O)c1nc(-c2cccc(CNC3CCc4ccc(Cl)cc43)c2)cnc1N (centres unmarked) [Example 485, 3-amino-6-(3-{[(6-chloro-2,3-dihydro-1H-inden-1-yl)amino]methyl}phenyl)-N-methylpyrazine-2-carboxamide] | – | IC50 (Table 11, Chk1 only): 50 to 1000 nM |
| Nc1ncc(-c2cccc(CNC(=O)c3cc(Cl)sc3Cl)c2)nc1C(=O)N[C@H]1CCCNC1 [Example 992, 3-amino-6-[3-({[(2,5-dichloro-3-thienyl)carbonyl]amino}methyl)phenyl]-N-[(3S)-piperidin-3-yl]pyrazine-2-carboxamide] | – | IC50 [1]: < 50 nM |
| CNC(=O)c1nc(-c2cccc(CNC3CCc4c(Cl)cccc43)c2)cnc1N (centres unmarked) [Example 487, 3-amino-6-(3-{[(4-chloro-2,3-dihydro-1H-inden-1-yl)amino]methyl}phenyl)-N-methylpyrazine-2-carboxamide] | – | IC50 (Table 11, Chk1 only): < 50 nM |
| CNC(=O)c1nc(-c2cccc(C(=O)NCc3cccc(OC(F)(F)F)c3)c2)cnc1N [Example 218, 3-amino-N-methyl-6-(3-{[({3-[(trifluoromethyl)oxy]phenyl}methyl)amino]carbonyl}phenyl)pyrazine-2-carboxamide] | 1000 to 10000 | – |
| CNC(=O)c1nc(-c2cccc(OCCN3CCN(CCO)CC3)c2)cnc1N [Example 193, 3-amino-6-[3-({2-[4-(2-hydroxyethyl)piperazin-1-yl]ethyl}oxy)phenyl]-N-methylpyrazine-2-carboxamide] | 50 to 1000 | – |
| Nc1ncc(-c2cccc(C(=O)NCc3ccc(Cl)cc3Cl)c2)nc1C(=O)N[C@H]1CCCNC1 [Example 832, 3-amino-6-[3-({[(2,4-dichlorophenyl)methyl]amino}carbonyl)phenyl]-N-[(3S)-piperidin-3-yl]pyrazine-2-carboxamide] | – | IC50 [1]: < 50 nM |
| Nc1ncc(-c2cccc(CNC(=O)COc3ccc(OC(F)(F)F)cc3)c2)nc1C(=O)N[C@H]1CCCNC1 [Example 988, 3-amino-N-[(3S)-piperidin-3-yl]-6-[3-({[({4-[(trifluoromethyl)oxy]phenyl}oxy)acetyl]amino}methyl)phenyl]pyrazine-2-carboxamide] | – | IC50 [1]: < 50 nM |
| Nc1ncc(-c2cccc(CN[C@H]3CCc4ccccc43)c2)nc1C(=O)NCCN1CCCC1 [Example 540, 3-amino-6-(3-{[(1S)-2,3-dihydro-1H-inden-1-ylamino]methyl}phenyl)-N-(2-pyrrolidin-1-ylethyl)pyrazine-2-carboxamide] | – | IC50 (Table 11, Chk1 only): 50 to 1000 nM |
| Nc1ncc(-c2cccc(CNS(=O)(=O)c3ccccc3C(F)(F)F)c2)nc1C(=O)N[C@H]1CCCNC1 [Example 915, 3-amino-N-[(3S)-piperidin-3-yl]-6-{3-[({[2-(trifluoromethyl)phenyl]sulfonyl}amino)methyl]phenyl}pyrazine-2-carboxamide] | – | IC50 [1]: 50 to 1000 nM |
| Nc1ncc(-c2cccc(CNC(=O)Nc3ccc4c(c3)OCCO4)c2)nc1C(=O)N[C@H]1CCCNC1 [Example 935, 3-amino-6-[3-({[(2,3-dihydro-1,4-benzodioxin-6-ylamino)carbonyl]amino}methyl)phenyl]-N-[(3S)-piperidin-3-yl]pyrazine-2-carboxamide] | – | IC50 [1]: < 50 nM |
| CNC(=O)c1nc(-c2cnc(N)c(C(=O)NC)n2)cnc1N [Example 266, 5,5′-diamino-N,N′-dimethyl-2,2′-bipyrazine-6,6′-dicarboxamide] | ≥ 10000 | – |
| COC(=O)c1ccc(CNC(=O)c2cccc(-c3cnc(N)c(C(=O)N[C@H]4CCCNC4)n3)c2)cc1 [Example 869, methyl 4-[({[3-(5-amino-6-{[(3S)-piperidin-3-ylamino]carbonyl}pyrazin-2-yl)phenyl]carbonyl}amino)methyl]benzoate] | – | IC50 [1]: < 50 nM |

Second part, led by results:

| IC50 [nM] | SMILES | also measured |
| --- | --- | --- |
| 50 to 1000 | CNC(=O)c1nc(-c2cccc(C(=O)N[C@@H](C)c3ccccc3)c2)cnc1N [Example 145, 3-amino-N-methyl-6-[3-({[(1S)-1-phenylethyl]amino}carbonyl)phenyl]pyrazine-2-carboxamide] | – |
| 50 to 1000 | CNC(=O)c1nc(-c2ccc(C(=O)NCCc3ccccc3)cc2)cnc1N [Example 151, 3-amino-N-methyl-6-(4-{[(2-phenylethyl)amino]carbonyl}phenyl)pyrazine-2-carboxamide] | – |
| 1000 to 10000 | CNC(=O)c1nc(-c2cccc(C(=O)N[C@H]3c4ccccc4C[C@H]3O)c2)cnc1N [Example 141, 3-amino-6-[3-({[(1S,2R)-2-hydroxy-2,3-dihydro-1H-inden-1-yl]amino}carbonyl)phenyl]-N-methylpyrazine-2-carboxamide] | – |
| 50 to 1000 | CNC(=O)c1nc(-c2cccc(C(=O)NCc3cccc(N)c3)c2)cnc1N [Example 232, 3-amino-6-[3-({[(3-aminophenyl)methyl]amino}carbonyl)phenyl]-N-methylpyrazine-2-carboxamide] | – |
| < 50 | CNC(=O)c1nc(-c2cccc(C(=O)NCc3ccc(-c4csnn4)cc3)c2)cnc1N [Example 376, 3-amino-N-methyl-6-{3-[({[4-(1,2,3-thiadiazol-4-yl)phenyl]methyl}amino)carbonyl]phenyl}pyrazine-2-carboxamide] | – |
| 1000 to 10000 | CNC(=O)c1nc(-c2cccc(-c3noc(Cc4ccccc4)n3)c2)cnc1N [Example 137, 3-amino-N-methyl-6-{3-[5-(phenylmethyl)-1,2,4-oxadiazol-3-yl]phenyl}pyrazine-2-carboxamide] | – |
| < 50 | CNC(=O)c1nc(-c2cccc(C(=O)NCc3ccc(-c4ccccc4)cc3)c2)cnc1N [Example 182, 3-amino-6-(3-{[(biphenyl-4-ylmethyl)amino]carbonyl}phenyl)-N-methylpyrazine-2-carboxamide] | – |
| 50 to 1000 | CNC(=O)c1nc(-c2cccc(C(=O)NCc3ccc(C)cc3C)c2)cnc1N [Example 214, 3-amino-6-[3-({[(2,4-dimethylphenyl)methyl]amino}carbonyl)phenyl]-N-methylpyrazine-2-carboxamide] | – |
| ≥ 10000 | CNC(=O)c1nc(-c2noc(CCc3ccccc3)n2)cnc1N [Example 72, 3-amino-N-methyl-6-[5-(2-phenylethyl)-1,2,4-oxadiazol-3-yl]pyrazine-2-carboxamide] | – |
